Measurements reported in US20250197409A1, “BIFUNCTIONAL COMPOUND AND PHARMACEUTICAL COMPOSITION COMPRISING THE BIFUNCTIONAL COMPOUND, AND METHOD FOR TREATING ANDROGEN RECEPTOR RELATED DISEASE BY USING THE SAME” (ANHORN MEDICINES CO., LTD., priority 2022, published 2025).
Like-named read-outs stand apart in the source and are kept apart here.

Biological target: T1, androgen receptor (Homo sapiens, UniProt P10275, T878A)
T1 construct: host or cells: LNCaP.FGC
Assay: Androgen receptor degradation assay using Western blot analysis
Type: cell-based
In short: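 LNCaP.FGC cells (2×10^5/well) treated with 10-fold serial dilutions in RPMI from 100 nM stock; untreated cells as negative control. AR Western signal normalized to GAPDH, expressed as % remaining versus untreated (100%). DC50 derived from calibration curve of serial dilutions.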

[1] = 24 h, read-out: Androgen Receptor Remaining (%), LNCaP.FGC cells, 100 nM, 24 hr, normalized to GAPDH, untreated cells = 100%
[2] = read-out: AR DC50 (concentration needed for 50% AR degradation); LNCaP.FGC cells, serial 10x dilutions from 100 nM
[3] = LNCaP.FGC cells, serial 10x dilutions from 100 nM; read-out: AR DC50 (concentration needed for 50% AR degradation)

T1 sequence (P10275 whole entry T878A): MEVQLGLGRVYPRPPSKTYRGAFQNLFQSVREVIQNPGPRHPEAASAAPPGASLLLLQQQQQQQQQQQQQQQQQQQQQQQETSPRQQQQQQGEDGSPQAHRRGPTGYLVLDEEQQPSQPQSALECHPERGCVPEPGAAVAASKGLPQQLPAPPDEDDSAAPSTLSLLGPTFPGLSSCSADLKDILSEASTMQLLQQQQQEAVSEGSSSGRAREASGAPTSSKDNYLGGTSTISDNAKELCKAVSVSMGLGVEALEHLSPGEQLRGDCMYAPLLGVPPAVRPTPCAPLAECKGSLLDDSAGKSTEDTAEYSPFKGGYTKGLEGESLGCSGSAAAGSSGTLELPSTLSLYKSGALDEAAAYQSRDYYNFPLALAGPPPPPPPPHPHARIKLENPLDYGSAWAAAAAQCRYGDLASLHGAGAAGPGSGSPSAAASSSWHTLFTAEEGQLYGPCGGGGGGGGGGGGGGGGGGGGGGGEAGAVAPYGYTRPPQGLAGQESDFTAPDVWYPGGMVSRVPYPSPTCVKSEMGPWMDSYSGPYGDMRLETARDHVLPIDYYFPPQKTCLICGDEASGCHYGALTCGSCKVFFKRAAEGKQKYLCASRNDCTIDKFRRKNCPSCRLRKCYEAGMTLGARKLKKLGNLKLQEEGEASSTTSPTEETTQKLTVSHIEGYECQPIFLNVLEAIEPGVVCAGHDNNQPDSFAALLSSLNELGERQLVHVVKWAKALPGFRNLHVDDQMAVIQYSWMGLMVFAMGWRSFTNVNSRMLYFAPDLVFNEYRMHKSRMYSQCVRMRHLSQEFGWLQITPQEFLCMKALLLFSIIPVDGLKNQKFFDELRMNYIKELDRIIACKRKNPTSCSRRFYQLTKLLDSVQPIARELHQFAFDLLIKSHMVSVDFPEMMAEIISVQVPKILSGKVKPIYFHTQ
T1 sequence (Q96SW2 whole entry partner): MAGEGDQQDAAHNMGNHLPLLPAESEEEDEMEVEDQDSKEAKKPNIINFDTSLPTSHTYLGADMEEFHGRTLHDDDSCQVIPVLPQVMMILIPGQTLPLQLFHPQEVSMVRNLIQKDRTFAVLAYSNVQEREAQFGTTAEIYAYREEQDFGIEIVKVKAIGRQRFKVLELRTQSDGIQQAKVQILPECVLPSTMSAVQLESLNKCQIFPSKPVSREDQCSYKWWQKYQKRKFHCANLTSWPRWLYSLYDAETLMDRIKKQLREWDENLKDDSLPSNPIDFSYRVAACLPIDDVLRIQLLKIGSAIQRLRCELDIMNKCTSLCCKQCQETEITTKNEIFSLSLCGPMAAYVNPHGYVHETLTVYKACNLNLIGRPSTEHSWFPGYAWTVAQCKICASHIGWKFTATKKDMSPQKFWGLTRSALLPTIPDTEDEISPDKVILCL

remaining activity at 0.1 µM (24 h, LNCaP.FGC cells, 100 nM, 24 hr, normalized to GAPDH, untreated cells = 100%; read-out: Androgen Receptor Remaining (%))	DC50 [3]	Structure (SMILES)	remaining activity at 0.1 µM [1]	DC50 [2]
		CCn1c2c(c3ccc(OCCN4CCC5(CCN(c6ccc(C(=O)N[C@H]7CC[C@H](Oc8ccc(C#N)c(Cl)c8)CC7)nn6)C5)C4)cc31)C(=O)N(C1CCC(=O)NC1=O)C2=O (stereo partly drawn) [Compound 133]	1%	10 to 25 nM
		CCn1c2c(c3ccc(OCC(=O)N4CCC5(CCN(c6ccc(C(=O)N[C@H]7CC[C@H](Oc8ccc(C#N)c(Cl)c8)CC7)nn6)C5)C4)cc31)C(=O)N(C1CCC(=O)N(CO)C1=O)C2=O (stereo partly drawn) [Compound 135]	17%	25 to 100 nM
		CCn1c2c(c3ccc(OCC(=O)N4CCC5(CCN(c6ccc(C(=O)N[C@H]7CC[C@H](Oc8ccc(C#N)c(Cl)c8)CC7)nn6)C5)C4)cc31)C(=O)N(C1CCC(=O)NC1=O)C2=O (stereo partly drawn) [Compound 136]	17%	25 to 100 nM
		CCn1c2c(c3ccc(OCCOCC4CCN(c5ccc(C(=O)N[C@H]6CC[C@H](N(C)c7ccc(C#N)c(Cl)c7)CC6)nn5)CC4)cc31)C(=O)N(C1CCC(=O)NC1=O)C2=O (stereo partly drawn) [Compound 137]	1%	25 to 100 nM
		CCn1c2c(c3ccc(OCCOCC4CCN(c5ccc(C(=O)N[C@H]6CC[C@H](Oc7ccc(C#N)c(Cl)c7)CC6)nn5)CC4)cc31)C(=O)N(C1CCC(=O)NC1=O)C2=O (stereo partly drawn) [Compound 138]	39%	25 to 100 nM
		CCn1c2c(c3cc(OCCN4CCC(C#Cc5ccc(C(=O)NC6C(C)(C)C(Oc7ccc(C#N)c(Cl)c7)C6(C)C)cc5)CC4)ccc31)C(=O)N(C1CCC(=O)NC1=O)C2=O (stereo not drawn) [Compound 139]	52%	25 to 100 nM
		CCn1c2c(c3ccc(OCCC4CCN(c5ccc(C(=O)N[C@H]6CC[C@H](N(C)c7ccc(C#N)c(Cl)c7)CC6)nn5)CC4)cc31)C(=O)N(C1CCC(=O)NC1=O)C2=O (stereo partly drawn) [Compound 140]	32%	25 to 100 nM
		CCn1c2c(c3ccc(OCC(=O)NCC4CCN(c5ccc(C(=O)N[C@H]6CC[C@H](N(C)c7ccc(C#N)c(Cl)c7)CC6)nn5)CC4)cc31)C(=O)N(C1CCC(=O)C(CO)C1=O)C2=O (stereo partly drawn) [Compound 141]	49%	25 to 100 nM
		CCn1c2c(c3ccc(OCC(=O)NCC4CCN(c5ccc(C(=O)N[C@H]6CC[C@H](N(C)c7ccc(C#N)c(Cl)c7)CC6)nn5)CC4)cc31)C(=O)N(C1CCC(=O)NC1=O)C2=O (stereo partly drawn) [Compound 142]	49%	25 to 100 nM
		CCn1c2c(c3ccc(OC(=O)NC4CCN(c5ccc(C(=O)N[C@H]6CC[C@H](N(C)c7ccc(C#N)c(Cl)c7)CC6)nn5)CC4)cc31)C(=O)N(C1CCC(=O)NC1=O)C2=O (stereo partly drawn) [Compound 144]	86%	
		CCn1c2c(c3ccc(OCC(=O)N4CC5(CCN(c6ccc(C(=O)N[C@H]7CC[C@H](N(C)c8ccc(C#N)c(Cl)c8)CC7)nn6)C5)C4)cc31)C(=O)N(C1CCC(=O)N(CO)C1=O)C2=O (stereo partly drawn) [Compound 145]	62%	
		CCn1c2c(c3ccc(OCC(=O)N4CC5(CCN(c6ccc(C(=O)N[C@H]7CC[C@H](N(C)c8ccc(C#N)c(Cl)c8)CC7)nn6)C5)C4)cc31)C(=O)N(C1CCC(=O)NC1=O)C2=O (stereo partly drawn) [Compound 146]	62%	
		CCn1c2c(c3ccc(OCCOC4CC5(CCN(c6ccc(C(=O)N[C@H]7CC[C@H](Oc8ccc(C#N)c(Cl)c8)CC7)nn6)CC5)C4)cc31)C(=O)N(C1CCC(=O)NC1=O)C2=O (stereo partly drawn) [Compound 147]	46%	10 to 25 nM
		CCn1c2c(c3ccc(OCCOC4CC5(CCN(c6ccc(C(=O)N[C@H]7CC[C@H](N(C)c8ccc(C#N)c(Cl)c8)CC7)nn6)CC5)C4)cc31)C(=O)N(C1CCC(=O)NC1=O)C2=O (stereo partly drawn) [Compound 148]	30%	10 to 25 nM
		CCn1c2c(c3ccc(OCCCCN4CCN(c5ccc(C(=O)N[C@H]6CC[C@H](Oc7ccc(C#N)c(Cl)c7)CC6)nn5)CC4=O)cc31)C(=O)N(C1CCC(=O)NC1=O)C2=O (stereo partly drawn) [Compound 149]	11%	
		CCn1c2c(c3ccc(OCCCCN4CCN(c5ccc(C(=O)N[C@H]6CC[C@H](N(C)c7ccc(C#N)c(Cl)c7)CC6)nn5)CC4=O)cc31)C(=O)N(C1CCC(=O)NC1=O)C2=O (stereo partly drawn) [Compound 150]	40%	
		CCn1c2c(c3ccc(OCCCN4CCN(c5ccc(C(=O)N[C@H]6CC[C@H](Oc7ccc(C#N)c(Cl)c7)CC6)nn5)CC4=O)cc31)C(=O)N(C1CCC(=O)NC1=O)C2=O (stereo partly drawn) [Compound 151]	57%	
		CCn1c2c(c3ccc(OCCOC4CCC5(CC4)CN(c4ccc(C(=O)N[C@H]6CC[C@H](Oc7ccc(C#N)c(Cl)c7)CC6)nn4)C5)cc31)C(=O)N(C1CCC(=O)NC1=O)C2=O (stereo partly drawn) [Compound 152]	45%	25 to 100 nM
		CCn1c2c(c3ccc(OCCOC4CCN(c5ccc(C(=O)N[C@H]6CC[C@H](Oc7ccc(C#N)c(Cl)c7)CC6)nn5)CC4)cc31)C(=O)N(C1CCC(=O)NC1=O)C2=O (stereo partly drawn) [Compound 153]	109%	10 to 25 nM

remaining activity at 0.1 µM (24 h, LNCaP.FGC cells, 100 nM, 24 hr, normalized to GAPDH, untreated cells = 100%; read-out: Androgen Receptor Remaining (%))	DC50 [3]	Structure (SMILES)	remaining activity at 0.1 µM [1]	DC50 [2]
		CCn1c2c(c3ccc(OCCOC4CCN(c5ccc(C(=O)N[C@H]6CC[C@H](N(C)c7ccc(C#N)c(Cl)c7)CC6)nn5)CC4)cc31)C(=O)N(C1CCC(=O)NC1=O)C2=O (stereo partly drawn) [Compound 154]	33%	10 to 25 nM
		CCn1c2c(c3ccc(OCCCOC4CCN(c5ccc(C(=O)N[C@H]6CC[C@H](N(C)c7ccc(C#N)c(Cl)c7)CC6)nn5)CC4)cc31)C(=O)N(C1CCC(=O)NC1=O)C2=O (stereo partly drawn) [Compound 155]	19%	10 to 25 nM
		CCn1c2c(c3ccc(OCCOC4CCC5(CC4)CN(c4ccc(C(=O)N[C@H]6CC[C@H](N(C)c7ccc(C#N)c(Cl)c7)CC6)nn4)C5)cc31)C(=O)N(C1CCC(=O)NC1=O)C2=O (stereo partly drawn) [Compound 156]	37%	25 to 100 nM
		CCn1c2c(c3ccc(OCCCN4CCC(C5CCN(c6ccc(C(=O)N[C@H]7CC[C@H](Oc8ccc(C#N)c(Cl)c8)CC7)nn6)CC5)CC4)cc31)C(=O)N(C1CCC(=O)NC1=O)C2=O (stereo partly drawn) [Compound 157]	18%	10 to 25 nM
		CCn1c2c(c3ccc(OCCN4CCC(C5CCN(c6ccc(C(=O)N[C@H]7CC[C@H](Oc8ccc(C#N)c(Cl)c8)CC7)nn6)CC5)CC4)cc31)C(=O)N(C1CCC(=O)NC1=O)C2=O (stereo partly drawn) [Compound 158]	13%	10 to 25 nM
		CCn1c2c(c3ccc(OCCCOC4CCN(c5ccc(C(=O)N[C@H]6CC[C@H](Oc7ccc(C#N)c(Cl)c7)CC6)nn5)CC4)cc31)C(=O)N(C1CCC(=O)NC1=O)C2=O (stereo partly drawn) [Compound 159]	8%	25 to 100 nM
		CCn1c2c(c3ccc(OCCCN4CCC5(C4)CN(c4ccc(C(=O)N[C@H]6CC[C@H](Oc7ccc(C#N)c(Cl)c7)CC6)nn4)C5)cc31)C(=O)N(C1CCC(=O)NC1=O)C2=O (stereo partly drawn) [Compound 160]	17%	< 10 nM
		CCn1c2c(c3ccc(OCCN4CCC5(C4)CN(c4ccc(C(=O)N[C@H]6CC[C@H](Oc7ccc(C#N)c(Cl)c7)CC6)nn4)C5)cc31)C(=O)N(C1CCC(=O)NC1=O)C2=O (stereo partly drawn) [Compound 161]	31%	10 to 25 nM
		CCn1c2c(c3ccc(OCCOC4CC5(CCN(c6ccc(C(=O)N[C@H]7CC[C@H](Oc8ccc(C#N)c(Cl)c8)CC7)nn6)C5)C4)cc31)C(=O)N(C1CCC(=O)NC1=O)C2=O (stereo partly drawn) [Compound 162]	29%	25 to 100 nM
		CCn1c2c(c3ccc(OCCCC4CCN(c5ccc(C(=O)N[C@H]6CC[C@H](Oc7ccc(C#N)c(Cl)c7)CC6)nn5)CC4)cc31)C(=O)N(C1CCC(=O)NC1=O)C2=O (stereo partly drawn) [Compound 163]	41%	
		CCn1c2c(c3ccc(OCCOC4CC5(CCN(c6ccc(C(=O)N[C@H]7CC[C@H](N(C)c8ccc(C#N)c(Cl)c8)CC7)nn6)C5)C4)cc31)C(=O)N(C1CCC(=O)NC1=O)C2=O (stereo partly drawn) [Compound 164]	31%	10 to 25 nM
		CCn1c2c(c3ccc(OCCCC4CCN(c5ccc(C(=O)N[C@H]6CC[C@H](N(C)c7ccc(C#N)c(Cl)c7)CC6)nn5)CC4)cc31)C(=O)N(C1CCC(=O)NC1=O)C2=O (stereo partly drawn) [Compound 165]	77%	
		CCn1c2c(c3ccc(OCCN4CCC(C5CCN(c6ccc(C(=O)N[C@H]7CC[C@H](N(C)c8ccc(C#N)c(Cl)c8)CC7)nn6)CC5)CC4)cc31)C(=O)N(C1CCC(=O)NC1=O)C2=O (stereo partly drawn) [Compound 166]	47%	
		CCn1c2c(c3ccc(OCCCN4CCC(C5CCN(c6ccc(C(=O)N[C@H]7CC[C@H](N(C)c8ccc(C#N)c(Cl)c8)CC7)nn6)CC5)CC4)cc31)C(=O)N(C1CCC(=O)NC1=O)C2=O (stereo partly drawn) [Compound 167]	78%	
20%	10 to 25 nM	Cn1c2c(c3ccc(OCCOC4CCN(c5ccc(C(=O)N[C@H]6CC[C@H](Oc7ccc(C#N)c(Cl)c7)CC6)nn5)CC4)cc31)C(=O)N(C1CCC(=O)NC1=O)C2=O (stereo partly drawn) [Compound 168]		
		Cn1c2c(c3ccc(OCCOC4CCN(c5ccc(C(=O)N[C@H]6CC[C@H](N(C)c7ccc(C#N)c(Cl)c7)CC6)nn5)CC4)cc31)C(=O)N(C1CCC(=O)NC1=O)C2=O (stereo partly drawn) [Compound 169]	27%	10 to 25 nM
	25 to 100 nM	Cn1c2c(c3ccc(OCCOC4CC5(CCN(c6ccc(C(=O)N[C@H]7CC[C@H](Oc8ccc(C#N)c(Cl)c8)CC7)nn6)CC5)C4)cc31)C(=O)N(C1CCC(=O)NC1=O)C2=O (stereo partly drawn) [Compound 170]		
		Cn1c2c(c3ccc(OCCOC4CC5(CCN(c6ccc(C(=O)N[C@H]7CC[C@H](N(C)c8ccc(C#N)c(Cl)c8)CC7)nn6)CC5)C4)cc31)C(=O)N(C1CCC(=O)NC1=O)C2=O (stereo partly drawn) [Compound 171]		25 to 100 nM
		CCn1c2c(c3ccc(OCCCOC4CC5(CCN(c6ccc(C(=O)N[C@H]7CC[C@H](Oc8ccc(C#N)c(Cl)c8)CC7)nn6)CC5)C4)cc31)C(=O)N(C1CCC(=O)NC1=O)C2=O (stereo partly drawn) [Compound 172]		25 to 100 nM
